The text below walks through data of patent US11407741B2, “Compounds and their use as selective inhibitors of caspase-2” (priority 2017, dated 2022).

One assay has as its target T1, Casp-2 (Homo sapiens, UniProt P42575).
T1 construct: the Caspase-2 and Caspase-3 are human recombinant active enzymes; purchased Enzo Life ALX-201-057-U100
T1 sequence (P42575 170-325 limits assumed): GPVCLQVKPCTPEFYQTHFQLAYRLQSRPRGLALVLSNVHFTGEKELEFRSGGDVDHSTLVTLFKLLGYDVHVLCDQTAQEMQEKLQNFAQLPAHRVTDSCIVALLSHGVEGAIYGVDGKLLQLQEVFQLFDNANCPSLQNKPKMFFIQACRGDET
T1 sequence (P42575 348-452 limits assumed): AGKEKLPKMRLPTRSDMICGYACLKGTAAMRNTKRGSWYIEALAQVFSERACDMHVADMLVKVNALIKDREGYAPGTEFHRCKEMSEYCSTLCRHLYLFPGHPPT
In words: Caspase-2 inhibition assay for reversible inhibitors (IC50, Ki, dilution method). In kind it is biochemical. As for the experimental part: A preliminary step in the characterization of an inhibitor is the determination of its IC50. The IC50 is the necessary concentration of an inhibitor to decrease the enzyme activity by 50% of its maximum and uninhibited value.
The compound, at different concentrations, is incubated with the enzyme and buffer for 30 minutes at 37° C. to allow formation of the Enzyme-Inhibitor complex. The reaction is initiated by addition of buffer and substrate, and then activity is measured over 15 minutes for the determination of initial velocities.
The enzyme and the inhibitor (or DMSO as control) are incubated for 30 minutes at 37° C. The complex thus formed is diluted to 100th in the buffer/substrate mixture and then the activity measurement is started over 20 minutes. The initial rate obtained for the DMSO represents the 100% activity and will serve as a reference for the quantification of the residual activity of the enzyme in the presence of the inhibitor.
The reaction is started over 20 minutes upon addition of the buffer-substrate mixture.
Initial velocity values in RFU·min^−1 are reduced to Specific Activity (SA)values (pmol/min/μg enzyme) from an AMC standard range (1 RFU→0.02 pmol).
The evolution of the ratio 1/SA as a function of 1/[S] makes it possible to obtain the so-called double-inverse graph of Lineweaver-Burk from equation 4 (eq.4) where Vmaxapp and KMapp are the parameters which vary according to the type inhibition and as a function of inhibitor concentration. The intersection of the lines obtained for increasing inhibitor concentrations makes it possible to distinguish different types of inhibitors.
A secondary graph, obtained from the values of the slopes of the Lineweaver-Burk plot as a function of the concentration of inhibitor, makes it possible to obtain the value of the Ki. Its value is given by the abscissa point at the origin.
The initial velocity V0 is expressed from equation 8 (eq.8), where Vmax is the maximum reaction rate (reached when the enzyme is saturated with substrate), [S] the substrate concentration, KM is the Michaelis-Menten constant (substrate concentration corresponding to Vmax/2), Ki is the dissociation constant which accounts for the affinity of the inhibitor for the enzyme.

Assay [1] has as its system hippocampal neurons intoxicated with Aβ1-42 oligomers. Kind of assay: Protection against Abeta neurotoxicity in primary hippocampal neurons in microfluidic chambers. It is filed as cell-based, mice. On the set-up: key to Protective effect against Aβ toxicity: +: significant protection against a Aβ-induced cell death, Aβ-induced axonal degeneration, Aβ-induced electrophysiological dysfunction, and/or Aβ-induced synapse loss. Conditions: for Protective effect against Aβ toxicity: hippocampal cells pre-incubated 1 h, then Aβ1-42 oligomers. The source says: Hippocampus are micro-dissected from E16 embryos of C57B16/J wt mice (Rene Janvier, France) in cold Gey's Balanced Salt Solution (GBSS, Sigma) supplemented with 0.1% glucose (Life technologies).
Dissected structures are digested with papain (20 U/ML in DMEM, Sigma; St. Louis, Mo., USA) and mechanically dissociated in the presence of DNAse. Hippocampal cells are then rinsed and re-suspended in DMEM (Life Technologies, Inc., Gaithersburg, Md., USA) to a final density of 18 million cells/ml in Neurobasal (Life technologies) and Glutamax (0.1% LifeTechnologies) supplemented with B27 (1/50) and penicilline/sptreptomycine 1% (Gibco).
This cell suspension is then used to fill the reservoirs of microfluidic chambers, as described (Peyrin et al, 2011 Lab Chips 11(21):3663; Deleglise et al, 2014 Acta Neuropathologica Comm. 2: 145). Microfluidic chips are placed in plastic Petri dishes containing H20-EDTA to prevent evaporation and incubated at 37° C. in a humid 5% CO2 atmosphere. The culture medium is renewed every seven days.
Oligomeric form of Aβ1-42 (Tocris Bioscience, MN, USA), is produced according to Stine W B et al (2003) in J Biol Chem 278, pp 11612-11622 and can be controlled by electron microscopy as in Deleglise B et al. in Acta Neuropathol Commun. 2014; 2: 145).
Briefly, Aβ1-42 lyophilized peptides are solubilized at 1 mM in 1, 1, 1, 3, 3, 3,-hexafluoro-2-propanol (HFIP, Sigma Aldrich). After 30 min of incubation at RT, HFIP is evaporated for 12 h under chemical hood and peptides are dried for 1 h (with a Speed Vac at 4° C.). Then, 5 mM Aβ peptide stock solutions are obtained by resolubilization at in dimethylsulfoxide (DMSO, Sigma Aldrich). To obtain oligomers, Aβ peptide stock solution is diluted in cold phenol free DMEM-F12 medium (Life Technologies) to a final concentration of 100 μM. The solution is then incubated 24 h at 4° C. Soluble Aβ oligomer fraction is collected from the supernatant after a centrifugation step at 20 000 g (10 min; 4° C.), and stored at −80° C. until use.
After 18 days of culture in micro fluidic chambers, hippocampal cells are pre-incubated for 1 h with compounds of the invention prior diluted in phenol free DMEM-F12 medium or in phenol free DMEM-F12 medium alone as a control solution. Cells are then intoxicated for 3 h to 6 h or 24 h with 10 or 100 nm of Aβ1-42 oligomers (or with phenol free DMEM-F12 medium alone as a control solution). After the intoxication step, cells are fixed in 4% paraformaldehyde (PFA, Sigma; St. Louis, Mo., USA) for 20 min RT, and labelled as explained below to evaluate synapses status, cell death or axonal degeneration.
Briefly, after the fixation step, cultures cells are washed twice with PBS+Azide 0.1% for 5 min and permeabilized for 10 min with 0.2% Triton X-100 and 0.1% BSA (Bovine Serum Albumin, Sigma) in PBS+Azide 0.1%. Saturation step is then realized by incubating cells during 30 min in PBS+Azide 0.1%+BSA1%. Primary antibodies are then added and the samples incubated at 4° C. overnight in PBS. Afterwards, samples are rinsed twice for 5 min with PBS+Azide 0.1% and further incubated with the corresponding secondary antibody together with phalloidin conjugated to Alexa Fluor 555 for 2 h RT. The chips were then rinsed twice with PBS+Azide 0.1%.
The following antibodies are used: rabbit polyclonal anti-MAP-2 (AB5622; 1/400, MILLIPORE), mouse monoclonal Anti-Bassoon SAP7F407; 1:400, Enzo LifeSciences). Species-specific secondary antibodies coupled to Alexa 350, 488 or 500 are used (1/500, Life Technologies, Inc., Gaithersburg, Md., USA). Phalloidin conjugated to Alexa Fluor 555 (1/500, EnzoLifeTechnologies) is used to stain F-actin.
Images are acquired with an Axio-observer Zl (Zeiss, Germany) fitted with a cooled CCD camera (CoolsnapHQ2, Ropert Scientific). The microscope is controlled with Metamorph and Micro-manager software. Images were analyzed using ImageJ software.

Where a SMILES comes first, the peptide text is derived from it. [ ]: non-standard residue; d: D form. The star is where a group is joined. Pro(3S-CH2tBu) = CC(C)(C)C[C@H]1CCN[C@@H]1C(=O)O; X4 = CN(Cc1ccccc1)C(=O)/C=C/C(=O)N(CC(=O)O)N*; X3 = O=C(O)CN(N*)C(=O)COc1c(F)cccc1F; Quinaldoyl = O=C(c1ccc2ccccc2n1)*; X1 = c1ncc(CO*)s1 Some results are limits rather than exact numbers.

Turning to `CC(C)[C@H](NC(=O)c1ccc2ccccc2n1)C(=O)N[C@@H](CC(=O)O)C(=O)N[C@H](C(=O)N1CC[C@H](CC(C)(C)C)[C@H]1C(=O)N[C@@H](CC(=O)O)C(=O)OCc1cncs1)C(C)C` [Compound 3, (S)-4-(((S)-1-((2S,3S)-2-(((S)-3-carboxy-1-oxo-1-(thiazol-5 - ylmethoxy)propan-2-yl)carbamoyl)-3-neopenthylpyrrolidin-1-yl)-3-methyl-1-oxobutan-2-yl)amino)-3-((S)-3-methyl-2-(quinoline-2-carboxamido)butanamido)-4-oxobutanoic acid] (Quinaldoyl-VDV[Pro(3S-CH2tBu)]D-X1), on Casp-2, the “Selectivity Indexes (KiCasp3/KiCasp2)” value was >>1000; the “potency on Casp-2” value was “still powerful on Casp-2”; the “type of inhibition (reversible), dilution method” value was “reversible inhibitor”. On Casp-2 (from IC50 on Casp-2 and Caspase-3), the “Casp-2 selectivity” value is recorded as “Casp2-selective”. Besides, the “Protective effect against Aβ toxicity” value in assay [1] is reported as “+”. Consider `CC(C)[C@H](NC(=O)[C@H](CC(=O)O)NC(=O)C(=O)Nc1ccccc1C(C)(C)C)C(=O)N1CC[C@H](CC(C)(C)C)[C@H]1C(=O)NN(CC(=O)O)C(=O)COc1c(F)cccc1F` [Compound 6, (S)-3-(2-((2-(tert-butyl)phenyl)amino)-2-oxoacetamido)-4-(((S)-1-((2S,3S)-2-(2-(carboxymethyl)-2-(2-(2,6-difluorophenoxy)acetyl)hydrazinecarbonyl)-3-neopentylpyrrolidin-1-yl)-3-methyl-1-oxobutan-2-yl)amino)-4-oxobutanoic acid], for which, in assay [1], the “Protective effect against Aβ toxicity” value is listed as “+”. Turning to `CC(C)[C@H](NC(=O)c1ccc2ccccc2n1)C(=O)N[C@@H](CC(=O)O)C(=O)N[C@H](C(=O)N1CC[C@H](CC(C)(C)C)[C@H]1C(=O)NN(CC(=O)O)C(=O)COc1c(F)cccc1F)C(C)C` [Compound 4, (S)-4-(((S)-1-((2S,3S)-2-(2-(carboxymethyl)-2-(2-(2,6-difluorophenoxy)acetyl)hydrazinecarbonyl)-3-neopentylpyrrolidin-1-yl)-3-methyl-1-oxobutan-2-yl)amino)-3-((S)-3-methyl-2-(quinoline-2-carboxamido)butanamido)-4-oxobutanoic acid] (Quinaldoyl-VDV[Pro(3S-CH2tBu)]-X3), in assay [1], the “Protective effect against Aβ toxicity” value is “+”.

Turning to `CC(C)[C@H](NC(=O)c1ccc2ccccc2n1)C(=O)N[C@@H](CC(=O)O)C(=O)N[C@H](C(=O)N1CC[C@H](CC(C)(C)C)[C@H]1C(=O)N[C@@H](CC(=O)O)C(=O)COc1c(F)cccc1F)C(C)C` (single isomer, unassigned) [Compound 2 enantiomer a], the “Synapse protection toward Amyloid beta peptide [1-42] oligomers toxicity (FIG. 1)” value in assay [1] (pretreated at 0.1 μM or 1 μM, Aβ[1-42] oligomers 10 nM, **p<0.01) is “Synapse protection”. Take `CC(C)[C@H](NC(=O)c1ccc2ccccc2n1)C(=O)N[C@@H](CC(=O)O)C(=O)N[C@H](C(=O)N1CC[C@H](CC(C)(C)C)[C@H]1C(=O)NN(CC(=O)O)C(=O)/C=C/C(=O)N(C)Cc1ccccc1)C(C)C` [Compound 5, (S)-4-(((S)-1-((2S,3S)-2-(2-((E)-4-(benzyl(methyl)amino)-4-oxobut-2-enoyl)-2-(carboxymethyl)hydrazinecarbonyl)-3-neopentylpyrrolidin-1-yl)-3-methyl-1-oxobutan-2-yl)amino)-3-((S)-3-methyl-2-(quinoline-2-carboxamido)butanamido)-4-oxobutanoic acid] (Quinaldoyl-VDV[Pro(3S-CH2tBu)]-X4): the “Protective effect against Aβ toxicity” value in assay [1] is on record as “+”.
